System: MV-4-11 cells
Test: Gene expression microarray analysis (Affymetrix PrimeView) and GSEA
Assay type: cell-based, human
Parameters: RFU PODN (11730768_x_at) / Fold change /veh PODN (11730768_x_at) / RFU LINC00158 (11744669_a_at) / Fold change /veh LINC00158 (11744669_a_at) / RFU DUSP10 (11751237_a_at) / Fold change /veh DUSP10 (11751237_a_at) / RFU ID3 (11757404_x_at) / Fold change /veh ID3 (11757404_x_at) / RFU PLEKHG5 (11737974_s_at) / Fold change /veh PLEKHG5 (11737974_s_at) / RFU LRRC4B (11730491_at) / Fold change /veh LRRC4B (11730491_at) / RFU GIMAP4 (11747438_a_at) / Fold change /veh GIMAP4 (11747438_a_at) / RFU KRT8 (11758183_x_at) / Fold change /veh KRT8 (11758183_x_at) / RFU CNN1 (11734310_a_at) / Fold change /veh CNN1 (11734310_a_at) / RFU VPS37D (11726825_at) / Fold change /veh VPS37D (11726825_at) / RFU C10orf10 (11716522_x_at) / Fold change /veh C10orf10 (11716522_x_at) / RFU KIR2DL2 /// KIR2DL4 /// KIR2DL5A /// KIR2DL5B /// KIR2DS1 /// KIR2DS2 /// KIR2DS3 /// KIR2DS4 /// KIR3DL3 /// KIR3DL3 /// KIR3DS1 (11738374_at) / Fold change /veh KIR2DL2 /// KIR2DL4 /// KIR2DL5A /// KIR2DL5B /// KIR2DS1 /// KIR2DS2 /// KIR2DS3 /// KIR2DS4 /// KIR3DL3 /// KIR3DL3 /// KIR3DS1 (11738374_at) / RFU C1QL1 (11718748_at) / Fold change /veh C1QL1 (11718748_at) / RFU TMPRSS4 (11747572_a_at) / Fold change /veh TMPRSS4 (11747572_a_at) / RFU HAMP (11756126_x_at) / Fold change /veh HAMP (11756126_x_at) / RFU RNFT2 (11725882_a_at) / Fold change /veh RNFT2 (11725882_a_at) / RFU NR4A2 (11747474_a_at) / Fold change /veh NR4A2 (11747474_a_at) / RFU ABCC12 (11746883_a_at) / Fold change /veh ABCC12 (11746883_a_at) / RFU TMEM136 (11760407_x_at) / Fold change /veh TMEM136 (11760407_x_at) / RFU CLDN22 /// WWC2 (11732394_at) / Fold change /veh CLDN22 /// WWC2 (11732394_at) / RFU HLA-DPB1 (11760878_x_at) / Fold change /veh HLA-DPB1 (11760878_x_at) / RFU SPINT1 (11716480_a_at) / Fold change /veh SPINT1 (11716480_a_at) / RFU GAP43 (11754022_s_at) / Fold change /veh GAP43 (11754022_s_at) / RFU A4GNT (11735810_at) / Fold change /veh A4GNT (11735810_at) / RFU PRB3 (11715151_x_at) / Fold change /veh PRB3 (11715151_x_at) / RFU TUBB4B (11761932_at) / Fold change /veh TUBB4B (11761932_at) / RFU CAPN14 (11732068_a_at) / Fold change /veh CAPN14 (11732068_a_at) / RFU TMCC2 (11721928_a_at) / Fold change /veh TMCC2 (11721928_a_at) / RFU IRGQ (11745062_a_at) / Fold change /veh IRGQ (11745062_a_at) / RFU FAM174B (11720279_a_at) / Fold change /veh FAM174B (11720279_a_at) / RFU TMPRSS4 (11748680_a_at) / Fold change /veh TMPRSS4 (11748680_a_at) / RFU FAM212B (11763350_a_at) / Fold change /veh FAM212B (11763350_a_at) / RFU PLEKHG5 (11743358_a_at) / Fold change /veh PLEKHG5 (11743358_a_at) / RFU ZSCAN30 (11745921_a_at) / Fold change /veh ZSCAN30 (11745921_a_at) / RFU CMKLR1 (11741424_a_at) / Fold change /veh CMKLR1 (11741424_a_at) / RFU LOC101060620 /// MAPK8IP1 (11723275_at) / Fold change /veh LOC101060620 /// MAPK8IP1 (11723275_at) / RFU SPTSSB (11747773_x_at) / Fold change /veh SPTSSB (11747773_x_at) / RFU PRSS12 (11739890_at) / Fold change /veh PRSS12 (11739890_at) / RFU BIN1 (11741810_x_at) / Fold change /veh BIN1 (11741810_x_at) / RFU WNT11 (11732464_a_at) / Fold change /veh WNT11 (11732464_a_at) / RFU C10orf10 (11716521_a_at) / Fold change /veh C10orf10 (11716521_a_at) / RFU C5orf56 (11738089_at) / Fold change /veh C5orf56 (11738089_at) / RFU CYB561 (11721691_x_at) / Fold change /veh CYB561 (11721691_x_at) / RFU ANKRD19P (11752326_a_at) / Fold change /veh ANKRD19P (11752326_a_at) / RFU OR2T12 /// OR2T33 /// OR2T8 (11738714_s_at) / Fold change /veh OR2T12 /// OR2T33 /// OR2T8 (11738714_s_at) / RFU VCAN (11748164_a_at) / Fold change /veh VCAN (11748164_a_at) / RFU JSRP1 (11732532_at) / Fold change /veh JSRP1 (11732532_at) / RFU KRTAP10-11 (11738290_x_at) / Fold change /veh KRTAP10-11 (11738290_x_at) / RFU MYO3A (11730013_a_at) / Fold change /veh MYO3A (11730013_a_at) / RFU EBF3 (11725865_a_at) / Fold change /veh EBF3 (11725865_a_at) / RFU CAMK2N1 (11719241_x_at) / Fold change /veh CAMK2N1 (11719241_x_at) / RFU C5orf56 (11738088_a_at) / Fold change /veh C5orf56 (11738088_a_at) / RFU OLFML3 (11715873_a_at) / Fold change /veh OLFML3 (11715873_a_at) / RFU LOC100653217 /// NTM (11731650_a_at) / Fold change /veh LOC100653217 /// NTM (11731650_a_at) / RFU MAPK11 (11762145_a_at) / Fold change /veh MAPK11 (11762145_a_at) / RFU FIZ1 (11724087_x_at) / Fold change /veh FIZ1 (11724087_x_at) / RFU OASL (11726364_x_at) / Fold change /veh OASL (11726364_x_at) / RFU SOX15 (11748057_x_at) / Fold change /veh SOX15 (11748057_x_at) / RFU CD79A (11719716_a_at) / Fold change /veh CD79A (11719716_a_at) / RFU HIST1H1D (11736915_at) / Fold change /veh HIST1H1D (11736915_at) / RFU CASKIN2 (11723855_a_at) / Fold change /veh CASKIN2 (11723855_a_at) / RFU LOC730098 (11760151_x_at) / Fold change /veh LOC730098 (11760151_x_at) / RFU OR4N2 (11742367_at) / Fold change /veh OR4N2 (11742367_at) / RFU PRRT2 (11749266_a_at) / Fold change /veh PRRT2 (11749266_a_at) / RFU SNX32 (11753110_a_at) / Fold change /veh SNX32 (11753110_a_at) / RFU CDHR5 (11726645_a_at) / Fold change /veh CDHR5 (11726645_a_at) / RFU RCAN1 (11760418_a_at) / Fold change /veh RCAN1 (11760418_a_at) / RFU FAM167A (11723789_a_at) / Fold change /veh FAM167A (11723789_a_at) / RFU FAM26E (11764081_at) / Fold change /veh FAM26E (11764081_at) / RFU ISYNA1 (11749810_s_at) / Fold change /veh ISYNA1 (11749810_s_at) / RFU ACY1 (11761880_at) / Fold change /veh ACY1 (11761880_at) / RFU 11764098_at / Fold change /veh 11764098_at / RFU SAMD14 (11745864_x_at) / Fold change /veh SAMD14 (11745864_x_at) / RFU NPB (11741838_a_at) / Fold change /veh NPB (11741838_a_at) / RFU TMPRSS6 (11731388_a_at) / Fold change /veh TMPRSS6 (11731388_a_at) / RFU KRTAP10-2 (11738614_at) / Fold change /veh KRTAP10-2 (11738614_at) / RFU ARHGAP8 /// PRR5-ARHGAP8 (11727945_x_at) / Fold change /veh ARHGAP8 /// PRR5-ARHGAP8 (11727945_x_at) / RFU KRTAP5-7 /// NADSYN1 (11734609_at) / Fold change /veh KRTAP5-7 /// NADSYN1 (11734609_at) / RFU RASL12 (11751679_a_at) / Fold change /veh RASL12 (11751679_a_at) / RFU CDKN2B (11736163_a_at) / Fold change /veh CDKN2B (11736163_a_at) / RFU PRF1 (11729649_at) / Fold change /veh PRF1 (11729649_at) / RFU, ZNF638 /// ZNF638-IT1 / Fold change vs veh, ZNF638 /// ZNF638-IT1 / RFU, PANK3 / Fold change vs veh, PANK3 / RFU, SH3YL1 / Fold change vs veh, SH3YL1 / RFU, ZEB2 / Fold change vs veh, ZEB2 / RFU, NRIP1 / Fold change vs veh, NRIP1 / RFU, PTTG1IP / Fold change vs veh, PTTG1IP / RFU, CAPN2 / Fold change vs veh, CAPN2 / RFU, MED14 / Fold change vs veh, MED14 / RFU, SNORA58 / Fold change vs veh, SNORA58 / RFU, C1orf63 / Fold change vs veh, C1orf63 / RFU, LRRFIP1 / Fold change vs veh, LRRFIP1 / RFU, NDUFAF7 / Fold change vs veh, NDUFAF7 / RFU, SLC12A2 / Fold change vs veh, SLC12A2 / RFU, IBTK / Fold change vs veh, IBTK / RFU, ESF1 / Fold change vs veh, ESF1 / Fold change vs veh, TMEM50B / RFU, TAOK1 / Fold change vs veh, TAOK1 / RFU, ACBD3 / Fold change vs veh, ACBD3 / RFU, TMA16 / Fold change vs veh, TMA16 / RFU, RWDD3 / Fold change vs veh, RWDD3 / RFU, BCAT1 / Fold change vs veh, BCAT1 / RFU, EDEM3 / Fold change vs veh, EDEM3 / RFU, TMEM33 / Fold change vs veh, TMEM33 / RFU, WDR75 / Fold change vs veh, WDR75 / RFU, AHCTF1 / Fold change vs veh, AHCTF1 / RFU, TFRC / Fold change vs veh, TFRC / RFU, ZDHHC17 / Fold change vs veh, ZDHHC17 / RFU, NOM1 / Fold change vs veh, NOM1 / RFU, ARL8B / Fold change vs veh, ARL8B / RFU, ZBTB11 / Fold change vs veh, ZBTB11 / RFU, TAMM41 / Fold change vs veh, TAMM41 / RFU, KIAA1704 /// LOC100996395 / Fold change vs veh, KIAA1704 /// LOC100996395 / RFU, ING1 / Fold change vs veh, ING1 / RFU, TRMT61B / Fold change vs veh, TRMT61B / RFU, FUBP3 / Fold change vs veh, FUBP3 / RFU, TP53 / Fold change vs veh, TP53 / RFU, TNKS2 / Fold change vs veh, TNKS2 / RFU, ZFP14 / Fold change vs veh, ZFP14 / RFU, ACTR2 / Fold change vs veh, ACTR2 / RFU, PPP3R1 / Fold change vs veh, PPP3R1 / RFU, PIK3R1 / Fold change vs veh, PIK3R1 / RFU, HNRNPA1 / Fold change vs veh, HNRNPA1 / RFU, RNF170 / Fold change vs veh, RNF170 / RFU, ZNF28 / Fold change vs veh, ZNF28 / RFU, RNGTT / Fold change vs veh, RNGTT / RFU, OGT / Fold change vs veh, OGT / RFU, BRD1 / Fold change vs veh, BRD1 / RFU, MARS / Fold change vs veh, MARS / RFU, ZNF655 / Fold change vs veh, ZNF655 / RFU, FAHD1 / Fold change vs veh, FAHD1 / RFU, BDP1 / Fold change vs veh, BDP1 / RFU, LRRCC1 / Fold change vs veh, LRRCC1 / RFU, ARID1A / Fold change vs veh, ARID1A / RFU, ZNF146 / Fold change vs veh, ZNF146 / RFU, ZNF330 / Fold change vs veh, ZNF330 / RFU, GPN3 / Fold change vs veh, GPN3 / RFU, C9orf123 / Fold change vs veh, C9orf123 / RFU, N4BP2L2 / Fold change vs veh, N4BP2L2 / RFU, ARFIP1 / Fold change vs veh, ARFIP1 / RFU, FAM179B / Fold change vs veh, FAM179B / RFU, BCL10 / Fold change vs veh, BCL10 / RFU, UHRF1BP1L / Fold change vs veh, UHRF1BP1L / RFU, BET1 / Fold change vs veh, BET1 / RFU, CNOT2 / Fold change vs veh, CNOT2 / RFU, ZNF268 / Fold change vs veh, ZNF268 / Fold change vs veh, ZNF507 / RFU, DGCR2 / Fold change vs veh, DGCR2 / RFU, WDSUB1 / Fold change vs veh, WDSUB1 / Fold change vs veh, HSP90B1 /// MIR3652 / RFU, ADSS / Fold change vs veh, ADSS / RFU, GK / Fold change vs veh, GK / RFU, ZNF148 / Fold change vs veh, ZNF148 / RFU, TAF9 / Fold change vs veh, TAF9 / RFU, SLC1A5 / Fold change vs veh, SLC1A5 / RFU, SLMO2 / Fold change vs veh, SLMO2 / RFU, ABCC4 / Fold change vs veh, ABCC4 / RFU, LOC101060439 /// RAP1B / Fold change vs veh, LOC101060439 /// RAP1B / RFU, RFX7 / Fold change vs veh, RFX7 / RFU, GTPBP10 / Fold change vs veh, GTPBP10 / RFU, CNEP1R1 / Fold change vs veh, CNEP1R1 / RFU, BIVM-ERCC5 /// ERCC5 / Fold change vs veh, BIVM-ERCC5 /// ERCC5 / RFU, ILF3 / Fold change vs veh, ILF3 / RFU 11762660_at / Fold change /veh 11762660_at / RFU VCAN (11757783_s_at) / Fold change /veh VCAN (11757783_s_at) / RFU DDX43 (11728927_at) / Fold change /veh DDX43 (11728927_at) / RFU KRT8 (11758188_x_at) / Fold change /veh KRT8 (11758188_x_at) / RFU NKD1 (11759106_at) / Fold change /veh NKD1 (11759106_at) / RFU SRD5A1 (11742802_a_at) / Fold change /veh SRD5A1 (11742802_a_at) / RFU TPSAB1 /// TPSB2 (11721975_s_at) / Fold change /veh TPSAB1 /// TPSB2 (11721975_s_at) / RFU GSTM3 (11746129_a_at) / Fold change /veh GSTM3 (11746129_a_at) / RFU IL23R (11737362_x_at) / Fold change /veh IL23R (11737362_x_at) / RFU TMEM51 (11727254_a_at) / Fold change /veh TMEM51 (11727254_a_at) / RFU PIWIL2 (11732686_x_at) / Fold change /veh PIWIL2 (11732686_x_at) / RFU ORM1 (11744905_x_at) / Fold change /veh ORM1 (11744905_x_at) / RFU CCDC152 (11743942_at) / Fold change /veh CCDC152 (11743942_at) / RFU ECM1 (11717891_a_at) / Fold change /veh ECM1 (11717891_a_at) / RFU IL23R (11748794_a_at) / Fold change /veh IL23R (11748794_a_at) / RFU TNFAIP8L3 (11732012_x_at) / Fold change /veh TNFAIP8L3 (11732012_x_at) / RFU MBOAT4 (11741988_at) / Fold change /veh MBOAT4 (11741988_at) / RFU 11764193_at / Fold change /veh 11764193_at / RFU TMEM53 (11763286_at) / Fold change /veh TMEM53 (11763286_at) / RFU MAGEB2 (11727129_at) / Fold change /veh MAGEB2 (11727129_at) / RFU TMEM200A (11744735_a_at) / Fold change /veh TMEM200A (11744735_a_at) / RFU CCDC152 (11751479_a_at) / Fold change /veh CCDC152 (11751479_a_at) / RFU FAM211A (11726209_a_at) / Fold change /veh FAM211A (11726209_a_at) / RFU RGS16 (11746705_a_at) / Fold change /veh RGS16 (11746705_a_at) / RFU VCAN (11755009_s_at) / Fold change /veh VCAN (11755009_s_at) / RFU RHOB (11743442_s_at) / Fold change /veh RHOB (11743442_s_at) / RFU RGS16 (11720943_a_at) / Fold change /veh RGS16 (11720943_a_at) / RFU RGS16 (11720944_at) / Fold change /veh RGS16 (11720944_at) / RFU, VPS4B / Fold change vs veh, VPS4B / RFU, CREB1 / Fold change vs veh, CREB1 / RFU, DNAJC13 / Fold change vs veh, DNAJC13 / RFU, GNAQ / Fold change vs veh, GNAQ / RFU, CDK5R1 / Fold change vs veh, CDK5R1 / RFU, ZRANB3 / Fold change vs veh, ZRANB3 / RFU, CUL4A / Fold change vs veh, CUL4A / RFU, CCNY / Fold change vs veh, CCNY / RFU, UFL1 / Fold change vs veh, UFL1 / RFU, COG3 / Fold change vs veh, COG3 / RFU, DIAPH2 / Fold change vs veh, DIAPH2 / RFU, SKA2 / Fold change vs veh, SKA2 / RFU, AFF3 / Fold change vs veh, AFF3 / RFU, LMF1 / Fold change vs veh, LMF1 / RFU, IPO11 / Fold change vs veh, IPO11 / RFU, DFFB / Fold change vs veh, DFFB / RFU, FOXP1 / Fold change vs veh, FOXP1 / RFU, CARD8 / Fold change vs veh, CARD8 / RFU, STRN3 / Fold change vs veh, STRN3 / RFU, ADK / Fold change vs veh, ADK / RFU, RASSF2 / Fold change vs veh, RASSF2 / RFU, WIPF1 / Fold change vs veh, WIPF1 / RFU, LARP1B / Fold change vs veh, LARP1B / RFU, RASA1 / Fold change vs veh, RASA1 / RFU, RB1 / Fold change vs veh, RB1 / RFU, PPFIA1 / Fold change vs veh, PPFIA1 / RFU, MAT2A / Fold change vs veh, MAT2A / RFU, CCT5 / Fold change vs veh, CCT5 / RFU, WDR92 / Fold change vs veh, WDR92 / RFU, CUX1 / Fold change vs veh, CUX1 / RFU, TTC7A / Fold change vs veh, TTC7A / RFU, TMEM135 / Fold change vs veh, TMEM135 / RFU, DEPTOR / Fold change vs veh, DEPTOR / RFU, CPM / Fold change vs veh, CPM / RFU, DNAJB6 / Fold change vs veh, DNAJB6 / RFU, CACNA2D3 / Fold change vs veh, CACNA2D3 / RFU, DTX4 / Fold change vs veh, DTX4 / RFU, TFCP2 / Fold change vs veh, TFCP2 / RFU, GMCL1 /// GMCL1P1 / Fold change vs veh, GMCL1 /// GMCL1P1 / RFU, AEBP2 / Fold change vs veh, AEBP2 / RFU, SNHG1 /// SNORD22 /// SNORD25 /// SNORD26 /// SNORD27 /// SNORD28 /// SNORD29 /// SNORD31 / Fold change vs veh, SNHG1 /// SNORD22 /// SNORD25 /// SNORD26 /// SNORD27 /// SNORD28 /// SNORD29 /// SNORD31 / Fold change (Aza/veh), C12orf56 (ProbeSet 11735607_a_at) / Fold change (ACY-1035/veh), C12orf56 (ProbeSet 11735607_a_at) / Fold change (Aza/veh), FGFR1OP (ProbeSet 11751329_s_at) / Fold change (ACY-1035/veh), FGFR1OP (ProbeSet 11751329_s_at) / Fold change (Aza/veh), VPS36 (ProbeSet 11739960_a_at) / Fold change (ACY-1035/veh), VPS36 (ProbeSet 11739960_a_at) / RFU SYPL1 (11715823_x_at) / Fold change /veh SYPL1 (11715823_x_at) / RFU IGFBP7 (11715501_s_at) / Fold change /veh IGFBP7 (11715501_s_at) / RFU REEP3 (11722064_at) / Fold change /veh REEP3 (11722064_at) / RFU IGLL1 (11728026_x_at) / Fold change /veh IGLL1 (11728026_x_at): dose or concentration left out as unconfirmed
Details: MV-4-11 cells, 48 hours

Compound: Nc1ccc(-c2cccs2)cc1NC(=O)c1ccc2c(c1)cc(C1CC1)n2CCN1CCOCC1 [ACY-1035]
- Fold change /veh NPB (11741838_a_at): 0.93
